Measurements published in patent publication US20260174739A1 (priority 2022, published 2026).
pIC50: −log10 of the molar value. Counter-ions that a name gives are not always drawn. Like-named read-outs stand apart in the source and are kept apart here.

Tests used:
human NET = human NET (Homo sapiens, UniProt P23975); test: NET transporter inhibitory activity test (neurotransmitter transporter uptake assay kit); assay type: cell-based
Protocol: (§1) Transporter inhibition of human DAT and NET expressed in HEK-293 cells was assessed using a neurotransmitter transporter uptake assay kit. The assay was performed as described in the kit instructions, using centanafadine as a positive control. The specific procedures were as follows:
First day cell plating: HEK 293T cells were digested with trypsin, centrifuged, resuspended with a medium, counted, and seeded into a 6 cm culture dish at a density of 3×10^6 cells/well.
Second day cell transfection: HEK 293T cells were subjected to medium exchange, and then A, B tubes were prepared for NET-pcDNA5/FRT plasmid to be transfected. 200 μL of Opti-MEM was added to tube A, and 10 μL of Lipofectamine™ 3000 was added. The mixture was mixed well. 200 μL of Opti-MEM was added to tube B, and 5 μg of NET-pcDNA5/FRT plasmid was added. The mixture was mixed well, and then 10 μL of P3000™ was added to tube B. The mixture was mixed well (plasmid to transfection reagent ratio 1 μg:2 μL). The diluted solution of tube A was added to the diluted solution of tube B. The mixture was mixed well, and incubated at room temperature for 15 min. Finally, the mixture was gently added to the cells that had been subjected to medium exchange, gently shaken to mix, and then incubated overnight in an incubator at 37° C. with a carbon dioxide concentration of 5%. The cells were used for compound functional activity assays 18-20 h after transfection.
• a) After overnight transfection of NET cells, the cells were digested with trypsin, resuspended with DMEM+10% Dialyzed FBS medium, seeded into a 384-well plate at 20000 cells/well, and incubated overnight. Stably transfected DAT cells were digested with trypsin, resuspended with DMEM+10% Dialyzed FBS medium, seeded into a 384-well plate at 2500 cells/well, and incubated overnight. • b) 1× Assay buffer was prepared according to the kit instruction for later use; the positive compound and the test compound were serially diluted with DMSO, and then diluted to 2× with 1× assay buffer. • c) The medium was removed from the 384-well plate by centrifugation. • d) 16 μL of the compound prepared in step b) was added to corresponding experimental wells, wherein an initial concentration of 2× positive control compound was added to the positive control well, and 0.2% DMSO buffer was added to the negative control well. After centrifuging, the plate was incubated at 37° C. for 30 min. • e) A detection reagent was prepared using 1×HBSS, and 16 μL of the detection reagent was added to each well. After centrifuging, the plate was incubated at 37° C. for 60 min. • f) After incubation, the reading at 510 nm under the excitation of the detection wavelength of 425 nm was measured using a microplate reader. Curve fitting and IC50 calculation were performed using GraphPad Prism software nonlinear regression method.

human DAT = human DAT (Homo sapiens, UniProt Q01959); test: DAT transporter inhibitory activity test (neurotransmitter transporter uptake assay kit); assay type: cell-based
Protocol: as §1
DAT stably transfected culture: The DAT-HEK cell line was cultured in DMEM medium containing 10% fetal bovine serum and 0.2 mg/mL hygromycin B at 37° C. with 5% carbon dioxide.
DAT stably transfected cell passage: the old medium was removed, and the cells were washed once with PBS; 1 mL of TrypLE™ Express solution was then added, and the cells were incubated at 37° C. for about 2 min. When the cells were detached from the bottom of the dish, about 5 mL of complete medium pre-heated at 37° C. was added. The cell suspension was gently pipetted to separate the aggregated cells. The cell suspension was transferred to a sterile centrifuge tube and centrifuged at 1000 rpm for 5 min. In order to maintain the physiological activity of the cells, the experimental cell confluence was controlled at about 80%.
• a) After overnight transfection of NET cells, the cells were digested with trypsin, resuspended with DMEM+10% Dialyzed FBS medium, seeded into a 384-well plate at 20000 cells/well, and incubated overnight. […] After centrifuging, the plate was incubated at 37° C. for 30 min. • e) A detection reagent was prepared using 1×HBSS, and 16 μL of the detection reagent was added to each well. […] Curve fitting and IC50 calculation were performed using GraphPad Prism software nonlinear regression method.

human SERT = human SERT (Homo sapiens, UniProt P31645); test: Inhibitory activity assay against 5-HT transporter (neurotransmitter transporter uptake assay kit); assay type: cell-based; details: HEK-293 cells overexpressing human SERT; read-out: 5-HTT (IC50)
Protocol: In HEK-293 cells overexpressing human SERT, the transporter inhibitory effect of the test compound on human SERT was assayed using a Neurotransmitter transporter uptake assay kit (Molecular devices).

[1] = In vivo metabolism (pharmacokinetic) experiment in mice; design: species or system male ICR mice; details: mouse, male ICR mice; for bioavailability: oral 10 mg/kg vs iv 2.5 mg/kg, read-out: F (%); for AUC(0-inf) / Cmax / half-life: oral 10 mg/kg, plasma; for AUC(0-inf): read-out: AUC0-inf(po); for Cmax: read-out: Cmax (po); for half-life: read-out: T1/2 (po) (converted)
Protocol: Animal: male ICR mice. The animals were randomly assigned to treatment groups and fasted for 12 h prior to dosing.
Drug: the compound of the present disclosure was dissolved in a vehicle (5% DMSO+5% Solutol HS15+90% saline). For intravenous (iv) administration, the dose was 2.5 mg/kg with a dosing volume of 5 mL/kg; for oral (po) administration, the dose was 10 mg/kg with a dosing volume of 10 mL/kg body weight. Sample collection and bioanalysis: blood was collected from the orbit of the mice and added into EP tubes containing heparin sodium at 0.083, 0.25, 0.5, 1, 2, 4, 6, and 8 h (n=3 for each time point). Immediately after blood collection, the mice were euthanized by cervical dislocation, and mouse brains were collected at the corresponding time points. All samples were promptly collected, snap-frozen, and stored at −70° C. for later use. Plasma samples were obtained by centrifugation of whole blood. 10 μL of plasma was mixed with 190 μL of internal standard solution (20 ng/ml in acetonitrile containing 0.1% formic acid). After mixing, the samples were centrifuged at 13000 rpm for 10 min, and 120 μL of the supernatant was separately collected. Depending on the sensitivity of the compound, 0.5-10 μL of the supernatant was taken for drug analysis using the appropriate liquid chromatography-tandem mass spectrometry (LC-MS/MS). Each analyte was calibrated and identified using standards. According to brain tissue: the extract (50% acetonitrile/water) at a ratio of 1 g:8 mL was homogenized for 2 min using five 3 mm magnetic beads in an OMNI Bead Ruptor 24 Elite homogenizer at 3.2 m/s and centrifuged at 4° C. and 3000 g for 3 min. 50 μL of the supernatant was mixed with 200 μL of internal standard solution (20 ng/mL in 80% acetonitrile/water). After mixing, the samples were centrifuged at 13,000 rpm for 10 min, and 120 μL of the supernatant was separately collected. Depending on the sensitivity of the compound, 0.5-10 μL of the supernatant was taken for drug analysis using the appropriate LC-MS/MS method. Each analyte was calibrated and identified using standards.
Data analysis: drug concentrations below the lower limit of quantification (LLOQ) were considered zero. Pharmacokinetic parameters were analyzed using PK Solver with a non-compartmental, bolus injection or extravascular input analysis models. Data points below the LLOQ were excluded to improve the efficacy of t1/2 calculation.

[2] = Human liver microsome assay (metabolic stability); assay type: in vitro ADME; details: pH 7.4, human liver microsomes 0.2 mg/mL, 1 μM test drug, NADPH, 37° C.
Protocol: Control and reagent: NADPH, magnesium chloride, testosterone, phosphate buffer, etc. were supplied by Dalian Meilun Biotech Co., Ltd., etc.
Liver microsome: human liver microsomes were supplied by Corning.
Experimental step: the liver microsome incubations were performed in 96-well plates, each incubation system having a volume of 200 μL, in a medium of 0.1 M phosphate buffer (pH 7.4), including liver microsomes at a final concentration of 0.2 mg/mL, 1 μM of the test drug, 3.0 mM MgCl2, 0.01% DMSO, 0.5% acetonitrile, and 2.0 mM NADPH. The incubation system described above without NADPH was pre-incubated at 37° C. for 5 min using a rotary water bath constant temperature oscillator. NADPH was added to initiate the reaction. At 0, 5, 15, 30, and 60 min, 20 μL of the sample was taken out from the incubation system after mixing well and added to 200 μL of acetonitrile containing an internal standard to terminate the reaction. Under the same conditions, 1 μM testosterone was used as a positive control to assess the reliability of the reaction system. For the negative control, phosphate buffer was used instead of NADPH, and all other incubation conditions remained the same. At 60 min, 20 μL of the sample was taken out after mixing well and added to 200 μL of termination solution containing an internal standard to terminate the reaction.
Sample analysis: After treatments such as precipitated protein extraction with an organic solvent, the incubated sample was analyzed using liquid chromatography-tandem mass spectrometry (LC-MS/MS). The concentrations of the test drug or the positive control drug in the sample were semi-quantified. The concentration in the sample was expressed using the ratio of the analyte peak area to the internal standard peak area.
Data processing and analysis: A standard curve of the In residual rate of the drug in the incubation system with respect to the incubation time was plotted by using Excel software, linear regression was performed to obtain a slope k, and the half-life T1/2 (min) and the intrinsic clearance CLint (mL/min/kg) were calculated according to the following formula: […]

male C57 mice = test: Forced swim test; assay type: in vivo; details: intraperitoneal injection, test 0.5 h after dosing, motionless time in last 4 min
Protocol: Drug: the compound of the present disclosure was first uniformly mixed with 5% DMSO and 5% Solutol® HS 15. hysiological saline was then added to make up 90% of the final volume. The mixture was prepared at an appropriate concentration immediately before use.
Animal: male C57 mice, about 22 g. The animals were randomly divided into a blank control group and test drug groups, 8 animals per group, and mice in each group were administered either the vehicle or the test compound via intraperitoneal injection.
Experimental steps: the mice were subjected to forced swim test 0.5 h after dosing. The water level in the forced swim device was 45 cm, and the water temperature was 25° C. The mice were placed in an experimental room to adapt to the environment for 1 h before the experiment began. When the experiment began, the mice were placed in the device for 6 min, and the whole process was recorded by a camera. Only the motionless time of the mice in the last 4 min was counted when data were analyzed.

[3] = DAT stably transfected HEK cells, read-out: DAT (IC50)
[4] = NET transiently transfected HEK 293T cells, read-out: NET (IC50)

Chain of human NET (P23975 whole entry): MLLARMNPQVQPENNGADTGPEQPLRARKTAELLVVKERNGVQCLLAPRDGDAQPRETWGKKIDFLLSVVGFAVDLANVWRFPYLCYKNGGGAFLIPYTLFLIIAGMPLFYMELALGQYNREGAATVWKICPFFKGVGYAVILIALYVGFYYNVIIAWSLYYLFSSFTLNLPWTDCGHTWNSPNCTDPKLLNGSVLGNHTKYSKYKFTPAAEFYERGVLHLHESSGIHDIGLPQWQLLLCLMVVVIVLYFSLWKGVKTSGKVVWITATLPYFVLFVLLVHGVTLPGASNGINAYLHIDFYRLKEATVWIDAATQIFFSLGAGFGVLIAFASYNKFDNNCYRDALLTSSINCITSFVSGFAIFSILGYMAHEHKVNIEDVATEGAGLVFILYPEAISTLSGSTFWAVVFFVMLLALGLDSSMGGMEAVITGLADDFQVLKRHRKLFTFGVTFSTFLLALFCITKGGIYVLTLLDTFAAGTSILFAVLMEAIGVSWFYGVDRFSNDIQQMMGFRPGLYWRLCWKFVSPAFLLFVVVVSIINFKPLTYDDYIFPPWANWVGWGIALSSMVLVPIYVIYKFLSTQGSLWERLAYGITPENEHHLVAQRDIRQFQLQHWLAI
Chain of human DAT (Q01959 whole entry): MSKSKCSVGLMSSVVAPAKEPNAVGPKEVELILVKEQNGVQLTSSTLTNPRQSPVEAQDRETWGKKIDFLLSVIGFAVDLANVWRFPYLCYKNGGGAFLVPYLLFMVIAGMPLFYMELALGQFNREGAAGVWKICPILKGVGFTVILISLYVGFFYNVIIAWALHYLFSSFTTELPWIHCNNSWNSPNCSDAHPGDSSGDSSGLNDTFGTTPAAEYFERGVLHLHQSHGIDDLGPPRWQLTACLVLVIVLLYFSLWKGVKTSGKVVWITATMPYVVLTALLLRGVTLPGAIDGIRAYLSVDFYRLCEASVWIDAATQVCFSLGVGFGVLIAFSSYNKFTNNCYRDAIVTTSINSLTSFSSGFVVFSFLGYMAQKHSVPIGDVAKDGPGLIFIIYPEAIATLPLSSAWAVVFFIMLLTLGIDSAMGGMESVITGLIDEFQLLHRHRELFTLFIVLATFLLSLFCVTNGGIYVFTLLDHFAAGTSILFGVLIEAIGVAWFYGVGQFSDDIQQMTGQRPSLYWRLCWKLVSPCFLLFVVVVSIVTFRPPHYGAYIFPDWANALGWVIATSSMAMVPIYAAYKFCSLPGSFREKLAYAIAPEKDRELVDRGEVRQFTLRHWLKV
Chain of human SERT (P31645 whole entry): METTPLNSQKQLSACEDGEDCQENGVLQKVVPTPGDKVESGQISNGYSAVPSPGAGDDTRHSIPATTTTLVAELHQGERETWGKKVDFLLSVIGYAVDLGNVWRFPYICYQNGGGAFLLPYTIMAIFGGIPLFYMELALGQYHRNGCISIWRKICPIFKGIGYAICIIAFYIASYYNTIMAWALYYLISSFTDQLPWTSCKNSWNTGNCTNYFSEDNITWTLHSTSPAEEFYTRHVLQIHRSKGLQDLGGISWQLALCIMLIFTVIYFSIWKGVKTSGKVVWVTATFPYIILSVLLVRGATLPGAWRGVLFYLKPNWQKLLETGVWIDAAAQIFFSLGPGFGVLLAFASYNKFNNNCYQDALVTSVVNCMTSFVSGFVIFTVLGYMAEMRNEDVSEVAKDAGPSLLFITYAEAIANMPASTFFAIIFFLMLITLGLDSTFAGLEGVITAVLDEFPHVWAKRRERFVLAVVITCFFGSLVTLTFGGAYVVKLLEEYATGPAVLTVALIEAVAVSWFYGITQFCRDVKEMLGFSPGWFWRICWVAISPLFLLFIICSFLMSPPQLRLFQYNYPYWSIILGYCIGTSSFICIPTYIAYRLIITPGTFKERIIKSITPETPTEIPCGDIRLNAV

Compound	pIC50 (human NET)	pIC50 (human DAT; [3])	pIC50 (human SERT)	also measured
Nc1nc2c(s1)CC(N)(c1cccc(F)c1)CC2 (racemic) [rac-A10, 6-(3-fluorophenyl)-4,5,6,7-tetrahydrobenzothiazole-2,6-diamine]	5.38	5.18	5.89	–
CNC1(c2ccccc2)CCCc2sc(N)nc21 (racemic) [rac-A38, N^4-methyl-4-phenyl-4,5,6,7-tetrahydrobenzothiazole-2,4-diamine]	–	–	–	bioavailability ([1]; male, ICR, po, 10 mg/kg): 71%; AUC(0-inf) ([1]; male, ICR, po, 10 mg/kg): 1620 ng·h/mL; Cmax ([1]; male, ICR, po, 10 mg/kg): 360 ng/mL; half-life ([1]; male, ICR, po, 10 mg/kg): 1.8 h; half-life at 1 μM ([2]; read-out: Half-life (t1/2, min)): 98 min; CLint scaled at 1 μM ([2]; read-out: Intrinsic clearance (Clint, mL/min/kg)): 41.3 mL/min/kg; Effective dose (male C57 mice): 3 mg/kg
Nc1nc2c(s1)CC(c1ccccc1)(N1CCCC1)CC2 (racemic) [rac-A50, 6-Phenyl-6-(Pyrrolidin-1-Yl)-4,5,6,7-Tetrahydrobenzothiazol-2-amine]	6.10	7.00	5.77	bioavailability [1]: 38%; AUC(0-inf) [1]: 321 ng·h/mL; Cmax [1]: 150 ng/mL; half-life [1]: 1.48 h
Nc1nc2c(s1)CC(c1cccc(Cl)c1)(N1CCCC1)CC2 (racemic) [rac-A51, 6-(3-chlorophenyl)-6-(pyrrolidin-1-yl)-4,5,6,7-tetrahydrobenzothiazol-2-amine]	6.52	6.70	5.92	–
NC1(c2ccccc2)CCc2[nH]ncc2C1 (racemic) [rac-A65, 5-phenyl-4,5,6,7-tetrahydro-1H-indazol-5-amine]	5.15	–	5.72	–
Nc1nc2c(s1)CC(NCC1CC1)(c1ccccc1)CC2 (racemic) [rac-A67, 6-phenyl-N^6-(cyclopropylmethyl)-4,5,6,7-tetrahydrobenzothiazole-2,6-diamine]	5.52	–	–	–
CNC1(c2ccc(C(F)(F)F)cc2)CCc2nc(N)sc2C1 (racemic) [rac-A96, 6-(4-trifluoromethylphenyl)-N^6-methyl-4,5,6,7-tetrahydrobenzothiazole-2,6-diamine hydrobromide]	4.85	–	–	–
CN(C)C1(c2ccccc2)CCc2nc(N)sc2C1 (racemic) [rac-A114, N^6,N^6-dimethyl-6-phenyl-4,5,6,7-tetrahydrobenzothiazole-2,6-diamine]	5.46	6.00	6.00	–
c1ccc2cc([C@]34CNC[C@H]3C4)ccc2c1 [Centanafadine, centanafadine, reference compound]	7.52	–	–	pIC50 (human DAT): 7.10
c1ccc([C@@]2(N3CCCC3)CCc3[nH]ncc3C2)cc1 [R-A12]	–	5.70	–	pIC50 (human NET; [4]): 5.42
Nc1nc2c(s1)C[C@](c1ccccc1)(N1CCCC1)CC2 [R-A50]	–	–	–	pIC50 (human NET; [4]): 6.70
